Legend:
[1] = frontal affinity chromatography (FAC), association constant to PA sugar chains without L-fucose; type: binding; details: for association constant Ka: 25 degrees C.
Outline: (§1)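 Lectin coupled via primary amines to NHS-activated sepharose in a miniature column, run in TBS (pH 7.4) at 0.125 ml/min and 25 degrees C. PA sugar chains (3.75 nM or 7.5 nM) applied in excess, with elution monitored by fluorescence (ex 310/em 380 nm). Ka calculated from front-end delay (V−Vo) versus PA rhamnose and effective ligand amount (Bt).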

[2] = frontal affinity chromatography (FAC), association constant to PA sugar chains having α1→6 L-fucose; type: binding; details: 25 degrees C.
Outline: as §1

Pholiota terrestris lectin [PTL, novel L-fucose α1→6 specific lectin purified from the mushroom Pholiota terrestris]
binding to sugar chain not having L-fucose ([1]; FAC): not bound
association constant Ka ([1]; Sugar chain No. 001): <1000 M⁻¹
association constant Ka ([1]; Sugar chain No. 002): <1000 M⁻¹
association constant Ka ([1]; Sugar chain No. 003): <1000 M⁻¹
association constant Ka ([1]; Sugar chain No. 004): <1000 M⁻¹
association constant Ka ([1]; Sugar chain No. 005): <1000 M⁻¹
association constant Ka ([1]; Sugar chain No. 006): <1000 M⁻¹
association constant Ka ([1]; Sugar chain No. 007): <1000 M⁻¹
association constant Ka ([1]; Sugar chain No. 008): <1000 M⁻¹
association constant Ka ([1]; Sugar chain No. 009): <1000 M⁻¹
association constant Ka ([1]; Sugar chain No. 010): <1000 M⁻¹
association constant Ka ([1]; Sugar chain No. 011): <1000 M⁻¹
association constant Ka ([1]; Sugar chain No. 012): <1000 M⁻¹
association constant Ka ([1]; Sugar chain No. 013): <1000 M⁻¹
association constant Ka ([1]; Sugar chain No. 014): <1000 M⁻¹
association constant Ka ([1]; Sugar chain No. 101): <1000 M⁻¹
association constant Ka ([1]; Sugar chain No. 103): <1000 M⁻¹
association constant Ka ([1]; Sugar chain No. 104): <1000 M⁻¹
association constant Ka ([1]; Sugar chain No. 105): <1000 M⁻¹
association constant Ka ([1]; Sugar chain No. 107): <1000 M⁻¹
association constant Ka ([1]; Sugar chain No. 108): <1000 M⁻¹
association constant Ka ([1]; Sugar chain No. 301): <1000 M⁻¹
association constant Ka ([1]; Sugar chain No. 304): <1000 M⁻¹
association constant Ka ([1]; Sugar chain No. 305): <1000 M⁻¹
association constant Ka ([1]; Sugar chain No. 307): <1000 M⁻¹
association constant Ka ([1]; Sugar chain No. 308): <1000 M⁻¹
association constant Ka ([1]; Sugar chain No. 313): <1000 M⁻¹
association constant Ka ([1]; Sugar chain No. 314): <1000 M⁻¹
association constant Ka ([1]; Sugar chain No. 323): <1000 M⁻¹
association constant Ka ([1]; Sugar chain No. 501): <1000 M⁻¹
association constant Ka ([1]; Sugar chain No. 502): <1000 M⁻¹
association constant Ka ([1]; Sugar chain No. 503): <1000 M⁻¹
association constant Ka ([1]; Sugar chain No. 504): <1000 M⁻¹
association constant Ka ([1]; Sugar chain No. 701): <1000 M⁻¹
association constant Ka ([1]; Sugar chain No. 702): <1000 M⁻¹
association constant Ka ([1]; Sugar chain No. 703): <1000 M⁻¹
association constant Ka ([1]; Sugar chain No. 704): <1000 M⁻¹
association constant Ka ([1]; Sugar chain No. 705): <1000 M⁻¹
association constant Ka ([1]; Sugar chain No. 706): <1000 M⁻¹
association constant Ka ([1]; Sugar chain No. 707): <1000 M⁻¹
association constant Ka ([1]; Sugar chain No. 708): <1000 M⁻¹
association constant Ka ([1]; Sugar chain No. 709): <1000 M⁻¹
association constant Ka ([1]; Sugar chain No. 710): <1000 M⁻¹
association constant Ka ([1]; Sugar chain No. 711): <1000 M⁻¹
association constant Ka ([1]; Sugar chain No. 712): <1000 M⁻¹
association constant Ka ([1]; Sugar chain No. 713): <1000 M⁻¹
association constant Ka ([1]; Sugar chain No. 715): <1000 M⁻¹
association constant Ka ([1]; Sugar chain No. 716): <1000 M⁻¹
association constant Ka ([1]; Sugar chain No. 717): <1000 M⁻¹
association constant Ka ([1]; Sugar chain No. 724): <1000 M⁻¹
association constant Ka ([1]; Sugar chain No. 725): <1000 M⁻¹
association constant Ka ([1]; Sugar chain No. 728 (as listed in Table 7)): <1000 M⁻¹
association constant Ka ([1]; Sugar chain No. 732): <1000 M⁻¹
association constant Ka ([1]; Sugar chain No. 733): <1000 M⁻¹
association constant Ka ([1]; Sugar chain No. 734): <1000 M⁻¹
association constant Ka ([1]; Sugar chain No. 735): <1000 M⁻¹
association constant Ka ([1]; Sugar chain No. 736): <1000 M⁻¹
association constant Ka ([1]; Sugar chain No. 737): <1000 M⁻¹
association constant Ka ([1]; Sugar chain No. 738): <1000 M⁻¹
association constant Ka ([1]; Sugar chain No. 901): <1000 M⁻¹
association constant Ka ([1]; Sugar chain No. 902): <1000 M⁻¹
association constant Ka ([1]; Sugar chain No. 903): <1000 M⁻¹
association constant Ka ([1]; Sugar chain No. 905): <1000 M⁻¹
association constant Ka ([1]; Sugar chain No. 906): <1000 M⁻¹
association constant Ka ([1]; Sugar chain No. 907): <1000 M⁻¹
association constant Ka to L-fucose α1→6 sugar chains ([2]; FAC): ≥ 100000 M⁻¹
association constant Ka ([2]; Sugar chain No. 015): 500000 M⁻¹
association constant Ka ([2]; Sugar chain No. 201): 460000 M⁻¹
association constant Ka ([2]; Sugar chain No. 202): 400000 M⁻¹
association constant Ka ([2]; Sugar chain No. 203): 330000 M⁻¹
association constant Ka ([2]; Sugar chain No. 401): 350000 M⁻¹
association constant Ka ([2]; Sugar chain No. 402): 200000 M⁻¹
association constant Ka ([2]; Sugar chain No. 403): 340000 M⁻¹
association constant Ka ([2]; Sugar chain No. 404): 390000 M⁻¹
association constant Ka ([2]; Sugar chain No. 405): 320000 M⁻¹
association constant Ka ([2]; Sugar chain No. 406): 220000 M⁻¹
association constant Ka ([2]; Sugar chain No. 407): 280000 M⁻¹
association constant Ka ([2]; Sugar chain No. 410): 220000 M⁻¹
association constant Ka ([2]; Sugar chain No. 413): 280000 M⁻¹
association constant Ka ([2]; Sugar chain No. 418): 220000 M⁻¹
association constant Ka ([2]; Sugar chain No. 601): 240000 M⁻¹
association constant Ka ([2]; Sugar chain No. 602): 120000 M⁻¹
